# Reference: patent publication US8686023B2, “Salts of sunitinib” (Lek Pharmaceuticals D.D., priority 2008, dated 2014)
substance,measurement,value
sunitinib L-malate,Solubility of sunitinib salts in water at 25° C.,2000 µg/mL
